From patent publication CN109260209A, “一种骨化三醇软胶囊及其制备方法” (CP Pharmaceutical Qingdao Co Ltd, priority 2018, dated 2019)

What was measured:
Assay type in all cases: in vivo, SD rat
[1] = system: ovariectomized osteoporotic rats (去卵巢骨质疏松大鼠); experiment: Bone mineral content (total and trabecular) in ovariectomized osteoporotic rats (Table 3); details: oral once daily, 1 month; calcitriol 5 μg/kg, emodin 5 μg/kg, calcitriol + emodin 5 μg/kg; right tibia
[2] = system: ovariectomized osteoporotic rats (去卵巢骨质疏松大鼠); experiment: Serum phosphorus in ovariectomized osteoporotic rats (Table 8); details: for serum phosphorus content (result in words): compared with negative control group
[3] = system: ovariectomized osteoporotic rats (去卵巢骨质疏松大鼠); experiment: Serum alkaline phosphatase in ovariectomized osteoporotic rats (Table 9); details: three months after surgery, compared with negative control group
[4] = system: ovariectomized osteoporotic rats (去卵巢骨质疏松大鼠); experiment: Uterine wet weight in ovariectomized osteoporotic rats (Table 10); details: three months after surgery; for uterine wet weight (result in words): compared with negative control group; for uterine wet weight: oral once daily, 1 month, nilestriol 1 mg/kg, calcitriol 5 μg/kg, emodin 5 μg/kg, calcitriol + emodin 5 μg/kg
[5] = system: ovariectomized osteoporotic rats (去卵巢骨质疏松大鼠); experiment: Serum calcium in ovariectomized osteoporotic rats (Table 7); details: for serum calcium content (result in words): compared with negative control group
[6] = system: ovariectomized osteoporotic rats (去卵巢骨质疏松大鼠); experiment: Serum estradiol in ovariectomized osteoporotic rats, radioimmunoassay (Table 6)
[7] = system: ovariectomized osteoporotic rats (去卵巢骨质疏松大鼠); experiment: Serum calcitonin in ovariectomized osteoporotic rats, radioimmunoassay (Table 4)
[8] = system: ovariectomized osteoporotic rats (去卵巢骨质疏松大鼠); experiment: Bone mineral density (total and trabecular) in ovariectomized osteoporotic rats (Table 2); details: oral once daily, 1 month; calcitriol 5 μg/kg, emodin 5 μg/kg, calcitriol + emodin 5 μg/kg; right tibia
[9] = system: ovariectomized osteoporotic rats (去卵巢骨质疏松大鼠); experiment: Osteocalcin in ovariectomized osteoporotic rats, radioimmunoassay (Table 5)
[10] = three months after surgery, oral once daily, 1 month, nilestriol 1 mg/kg, calcitriol 5 μg/kg, emodin 5 μg/kg, calcitriol + emodin 5 μg/kg

Row | SMILES | bone mineral content (result in words) [1] | phosphorus content ([2]; before surgery (baseline)) [mmol/L] | serum phosphorus content (result in words) ([2]; three months after surgery) | phosphorus content [2, 10] [mmol/L] | serum alkaline phosphatase content (result in words) [3] | uterine wet weight (result in words) [4] | uterine wet weight [4] [mg] | calcium content ([5]; before surgery (baseline)) [mmol/L] | serum calcium content (result in words) ([5]; three months after surgery) | calcium content [5, 10] [mmol/L] | serum estradiol content ([6]; before surgery (baseline)) [pg/mL] | serum estradiol content (result in words) ([6]; three months after surgery) | serum estradiol content [6, 10] [pg/mL] | serum calcitonin content ([7]; before surgery (baseline)) [ng/L] | serum calcitonin content (result in words) ([7]; three months after surgery) | serum calcitonin content [7, 10] [ng/L] | bone mineral density (result in words) [8] | osteocalcin content ([9]; before surgery (baseline)) [ng/L] | osteocalcin content (result in words) ([9]; three months after surgery) | osteocalcin content [9, 10] [ng/L]
1 | C=C1/C(=C\C=C2/CCC[C@]3(C)[C@@H]([C@H](C)CCCC(C)(C)O)CC[C@@H]23)C[C@@H](O)C[C@@H]1O [骨化三醇组, 9,10-开环胆甾-5Z,7E,10(19)-三烯-1α,3β,25-三醇] | 产生一定的提高骨含量的作用 | 1.61 ± 0.38 | 血清钙和磷含量与阴性对照组相比上升 | 1.71 ± 0.53 | 与阴性对照组相比也出现下降 | 子宫湿重明显高于阴性对照组 | 90.43 ± 10.43 | 4.10 ± 0.54 | 血清钙和磷含量与阴性对照组相比上升 | 4.24 ± 0.41 | 13.21 ± 1.56 | 血清雌二醇含量上升 | 15.34 ± 1.53 | 241.23 ± 11.43 | 血清降钙素含量上升 | 321.34 ± 13.43 | 产生一定的增强骨密度的作用 | 3.22 ± 1.22 | 骨钙素含量上升 | 3.45 ± 1.21
2 | C#C[C@]1(O)[C@H](O)C[C@H]2[C@@H]3CCc4cc(OC5CCCC5)ccc4[C@H]3CC[C@@]21C [阳性对照组, 尼尔雌醇] |  | 1.55 ± 0.45 | 血清钙和磷含量与阴性对照组相比上升 | 1.87 ± 0.46 | 与阴性对照组相比出现下降 | 子宫湿重明显高于阴性对照组 | 118.43 ± 12.43 | 4.19 ± 0.43 | 血清钙和磷含量与阴性对照组相比上升 | 4.65 ± 0.12 | 12.65 ± 2.21 |  | 20.43 ± 1.54 | 231.35 ± 20.11 |  | 459.34 ± 11.43 |  | 2.98 ± 0.89 |  | 4.12 ± 1.32
3 | Cc1cc(O)c2c(c1)C(=O)c1cc(O)cc(O)c1C2=O [大黄素组, 大黄素] | 产生一定的提高骨含量的作用 | 1.58 ± 0.43 | 血清钙和磷含量与阴性对照组相比上升 | 1.73 ± 0.65 | 与阴性对照组相比也出现下降 | 子宫湿重明显高于阴性对照组 | 89.34 ± 19.32 | 4.21 ± 0.24 | 血清钙和磷含量与阴性对照组相比上升 | 4.21 ± 0.56 | 12.87 ± 2.01 | 血清雌二醇含量上升 | 14.67 ± 1.76 | 222.43 ± 19.43 | 血清降钙素含量上升 | 265.24 ± 22.43 | 产生一定的增强骨密度的作用 | 3.09 ± 1.21 | 骨钙素含量上升 | 3.38 ± 0.98
